Results reported in patent publication EP1266900A1, “Carbamates of rapamycin” (Wyeth, priority 1992, dated 1994).
Structures can show the parent of a compound that is named as a salt. Where two headings read alike, the source gives them in different places.

What was measured:
pinch skin graft = pinch skin graft survival time, in vivo; design: species or system male C3H(H-2K) recipients; conditions: dose of 4 mg/kg, intraperitoneally or orally, untreated grafts usually rejected within 6-7 days
Experimental: (§1) Immunosuppressive activity for representative compounds of this invention was evaluated in an in vitro standard pharmacological test procedure to measure lymphocyte proliferation (LAF) and in an in vivo standard pharmacological test procedure which evaluated the survival time of a pinch skin graft.
Representative compounds of this invention were also evaluated in an in vivo test procedure designed to determine the survival time of pinch skin graft from male BAB/c donors transplanted to male C3H(H-2K) recipients. The method is adapted from Billingham R.E. and Medawar P.B., J. Exp. Biol. 28:385-402, (1951). Briefly, a pinch skin graft from the donor was grafted on the dorsum of the recipient as a allograft, and an isograft was used as control in the same region. The recipients were treated with either varying concentrations of test compounds intraperitoneally or orally. Rapamycin was used as a test control. Untreated recipients serve as rejection control. The graft was monitored daily and observations were recorded until the graft became dry and formed a blackened scab. This was considered as the rejection day. The mean graft survival time (number of days ± S.D.) of the drug treatment group was compared with the control group. […] Results are expressed as the mean survival time in days. Untreated (control) pinch skin grafts are usually rejected within 6-7 days. The results shown in Table 1 are based on a dose of 4 mg/kg of test compound. A survival time of 12.0 ± 1.7 days was obtained for rapamycin at 4 mg/kg.

[1] = tested on: cells from the thymus of normal BALB/c mice; assay: comitogen-induced thymocyte proliferation procedure (LAF); assay type: cell-based; conditions: for IC50: thymocytes cultured for 72 hours with PHA and IL-1, tritiated thymidine incorporation, read-out: LAF IC50; for LAF (ratio): ratio compared with rapamycin, greater than 1 = inhibited thymocyte proliferation to a greater extent than rapamycin
Experimental: as §1
The comitogen-induced thymocyte proliferation procedure (LAF) was used as an in vitro measure of the immunosuppressive effects of representative compounds. Briefly, cells from the thymus of normal BALB/c mice are cultured for 72 hours with PHA and IL-1 and pulsed with tritiated thymidine during the last six hours. Cells are cultured with and without various concentrations of rapamycin, cyclosporin A, or test compound. Cells are harvested and incorporated radioactivity is determined. Inhibition of lymphoproliferation is assessed as percent change in counts per minute from non-drug treated controls. For each compound evaluated, rapamycin was also evaluated for the purpose of comparison. An IC50 was obtained for each test compound as well as for rapamycin. […] A positive ratio indicates immunosuppressive activity. […] Calculation of the ratio is shown below. (()^3 H-control thymus cells -)/(()^3 H-control thymus cells -)(()^3 H-rapamycin-treated thymus cells)/(()^3 H-test compound-treated cells) [formula]

| Structure (SMILES) | Skin Graft (days ± SD), mean survival time (pinch skin graft) [days] | IC50 ([1]; Mus musculus, Thymocyte, 72 h) [nM] | LAF (ratio) [1] | Skin Graft (days ± SD), mean survival time (pinch skin graft; hydrochloride salt, 4 mg/kg) [days] | IC50 ([1]; hydrochloride salt) [nM] |
| --- | --- | --- | --- | --- | --- |
| CO[C@H]1C[C@@H]2CC[C@@H](C)[C@@](O)(O2)C(=O)C(=O)N2CCCC[C@H]2C(=O)O[C@H]([C@H](C)C[C@@H]2CC[C@@H](OC(=O)NCc3ccccn3)[C@H](OC)C2)CC(=O)[C@H](C)/C=C(\C)[C@@H](O)[C@@H](OC)C(=O)[C@H](C)C[C@H](C)/C=C/C=C/C=C/1C [Example 10, Rapamycin 42-ester with 2-pyridinylmethyl carbamic acid] | 10.17 ± 1.0 | 0.1 | 3.8 |  |  |
| CO[C@H]1C[C@@H]2CC[C@@H](C)[C@@](O)(O2)C(=O)C(=O)N2CCCC[C@H]2C(=O)O[C@H]([C@H](C)C[C@@H]2CC[C@@H](OC(=O)NN)[C@H](OC)C2)CC(=O)[C@H](C)/C=C(\C)[C@@H](O)[C@@H](OC)C(=O)[C@H](C)C[C@H](C)/C=C/C=C/C=C/1C [Example 4, Rapamycin 42-ester with aminocarbamic acid] | 9.8 ± 0.8 | 10 | 0.45 |  |  |
| CO[C@H]1C[C@@H]2CC[C@@H](C)[C@@](O)(O2)C(=O)C(=O)N2CCCC[C@H]2C(=O)O[C@H]([C@H](C)C[C@@H]2CC[C@@H](OC(=O)NCc3cccnc3)[C@H](OC)C2)CC(=O)[C@H](C)/C=C(\C)[C@@H](O)[C@@H](OC)C(=O)[C@H](C)C[C@H](C)/C=C/C=C/C=C/1C [Example 13, Rapamycin 42-ester with 3-pyridinylmethyl carbamic acid hydrochloride salt] |  |  |  | 9.50 ± 0.6 | 0.9 |
| CO[C@H]1C[C@@H]2CC[C@@H](C)[C@@](O)(O2)C(=O)C(=O)N2CCCC[C@H]2C(=O)O[C@H]([C@H](C)C[C@@H]2CC[C@@H](OC(=O)NCc3ccncc3)[C@H](OC)C2)CC(=O)[C@H](C)/C=C(\C)[C@@H](O)[C@@H](OC)C(=O)[C@H](C)C[C@H](C)/C=C/C=C/C=C/1C [Example 14, Rapamycin 42-ester with 4-pyridinylmethyl carbamic acid] | 9.17 ± 1.7 | 0.5 | 3.8 |  |  |
